Test results published in patent US6930131B2, “Aryl substituted 3-ethoxy phenyl trifluoromethane sulfonamides for the treatment of non-insulin dependent diabetes mellitus (NIDDM)” (Wyeth, priority 2002, dated 2005).

| melting point | Compound |
| --- | --- |
| 82 to 84 °C | COc1ccc(-c2ccc(COCCc3cccc(NS(=O)(=O)C(F)(F)F)c3)c(F)c2)cc1 [Example 32, N-{3-[2-(3-fluoro-4′-methoxy-biphenyl-4-ylmethoxy)-ethyl]-phenyl)-C,C,C-trifluoromethanesulfonamide] |
| 112 to 114 °C | Cc1c(COCc2cccc(-c3nn[nH]n3)c2)cccc1-c1ccccc1 [Example 33, 5-[3-(2-Methyl-biphenyl-3-ylmethoxymethyl)-phenyl]-2H-tetrazole] |
| 52 to 54 °C | O=S(=O)(Nc1cccc(CCOCc2cccc(-c3cc(Cl)cc(Cl)c3)c2)c1)C(F)(F)F [Example 34, N-{3-[2-(3′,5′-Dichloro-biphenyl-3-ylmethoxy)-ethyl]-phenyl)-C,C,C-trifluoro-methanesulfonamide] |
| 70 to 72 °C | O=S(=O)(Nc1cccc(CCOCc2ccc(-c3cc(Cl)cc(Cl)c3)cc2)c1)C(F)(F)F [Example 35, N-{3-[2-(3′,5′-Dichloro-biphenyl-4-ylmethoxy)-ethyl]-phenyl)-C,C,C-trifluoro-methanesulfonamide] |
| 48 to 50 °C | O=S(=O)(Nc1cccc(CCOCc2cccc(-c3ccc(F)cc3)c2)c1)C(F)(F)F [Example 36, N-{3-[2-(4′-Fluoro-biphenyl-3-ylmethoxy)-ethyl]-phenyl)-C,C,C-trifluoro-methanesulfonamide] |
| 65 to 67 °C | O=S(=O)(Nc1cccc(CCOCc2ccc(-c3ccc(F)cc3)cc2)c1)C(F)(F)F [Example 37, N-{3-[2-(4′-Fluoro-biphenyl-4-ylmethoxy)-ethyl]-phenyl)-C,C,C-trifluoro-methanesulfonamide] |
| 143 to 144 °C | NC(=O)Nc1ccc(CCOCc2ccccc2-c2ccccc2)cc1 [Example 38, {4-[2-(Biphenyl-2-ylmethoxy)-ethyl]-phenyl}-urea] |
| 87 to 89 °C | COc1ccc(-c2cccc(COCCc3cccc(NC(N)=O)c3)c2)cc1 [Example 39, {3-[2-(4′-Methoxy-biphenyl-3-ylmethoxy)-ethyl]-phenyl}-urea] |
| 99 to 101 °C | COc1ccc(-c2ccc(Cl)cc2)cc1COCCc1cccc(NS(=O)(=O)C(F)(F)F)c1 [Example 40, N-{3-[2-(4′-Chloro-4-methoxy-biphenyl-3-ylmethoxy)-ethyl]-phenyl}-C,C,C-trifluoromethanesulfonamide] |
| 155 °C (dec.) | COc1ccc(-c2ccc(Cl)cc2)cc1COCCc1cccc(NC(N)=O)c1 [Example 41, {3-[2-(4′-Chloro-4-methoxy-biphenyl-3-ylmethoxy)-ethyl]-phenyl}-urea] |
| 117 to 119 °C | O=S(=O)(Nc1cccc(CCOCc2csc(-c3ccc(C(F)(F)F)cc3)n2)c1)C(F)(F)F [Example 52, C,C,C-Trifluoro-N-(3-{2-[2-(4-trifluoromethyl-phenyl)-thiazol-4-ylmethoxy]-ethyl}-phenyl)-methanesulfonamide] |
| 116 to 117 °C | O=S(=O)(Nc1cccc(CCOCc2csc(-c3ccc(C(F)(F)F)cn3)n2)c1)C(F)(F)F [Example 57, C,C,C-Trifluoro-N-(3-{2-[2-(5-trifluoromethyl-pyridin-2-yl)-thiazol-4-yl-methoxy]ethyl}-phenyl)-methanesulfonamide] |
| 112 to 113 °C | O=S(=O)(Nc1cccc(CCOCc2csc(-c3ccccc3)n2)c1)C(F)(F)F [Example 58, C,C,C-Trifluoro-N-{3-[2-(2-phenyl-thiazol-4-ylmethoxy)-ethyl]phenyl}-methane sulfonamide] |
| 112 to 113 °C | COc1ccc(-c2nc(COCCc3cccc(NS(=O)(=O)C(F)(F)F)c3)cs2)cc1 [Example 59, C,C,C-Trifluoro-N-(3-{2-[2-(4-methoxy-phenyl)-thiazol-4-ylmethoxy]-ethyl}-phenyl)-methanesulfonamide] |
| 86 to 87 °C | O=S(=O)(Nc1cccc(CCOCc2csc(-c3ccccc3Cl)n2)c1)C(F)(F)F [Example 60, N-(3-{2-[2-(2-Chloro-phenyl)-thiazol-4-ylmethoxy]-ethyl}-phenyl)-C,C,C-trifluoro-methanesulfonamide] |
| 115 to 116 °C | O=S(=O)(Nc1cccc(CCOCc2csc(-c3ccc(OC(F)(F)F)cc3)n2)c1)C(F)(F)F [Example 61, C,C,C-Trifluoro-N-(3-{2-[2-(4-trifluoromethoxy-phenyl)-thiazol-4-yl-methoxy]-ethyl}-phenyl)-methanesulfonamide] |
| 84 to 85 °C | O=S(=O)(Nc1cccc(CCOCc2nc(-c3ccc(F)cc3)sc2Br)c1)C(F)(F)F [Example 62, N-(3-{2-[5-Bromo-2-(4-fluoro-phenyl)-thiazol-4-ylmethoxy]-ethyl}-phenyl)-C,C,C-trifluoromethanesulfonamide] |

| melting point | Compound |
| --- | --- |
| 107 to 109 °C | O=S(=O)(Nc1cccc(CCOCc2nc(-c3ccc(C(F)(F)F)cc3)sc2Cl)c1)C(F)(F)F [Example 63, N-(3-{2-[5-Chloro-2-(4-trifluoromethyl-phenyl)-thiazol-4-ylmethoxy]-ethyl}-phenyl)-C,C,C-trifluoromethanesulfonamide] |
| 71 to 73 °C | O=S(=O)(Nc1cccc(CCOCc2cccc(-c3ccc(F)cc3)n2)c1)C(F)(F)F [Example 64, C,C,C-Trifluoro-N-(3-{2-[6-(4-fluoro-phenyl)-pyridin-2-ylmethoxy]-ethyl}-phenyl)-methanesulfonamide] |
| 75 to 77 °C | O=S(=O)(Nc1cccc(CCOCc2cccc(-c3ccccc3)n2)c1)C(F)(F)F [Example 65, C,C,C-Trifluoro-N-{3-[2-(6-phenyl-pyridin-2-ylmethoxy)-ethyl]-phenyl}-methane sulfonamide] |
| 85 to 87 °C | O=S(=O)(Nc1cccc(CCOCc2sc3ccccc3c2Cl)c1)C(F)(F)F [Example 66, N-{3-[2-(3-Chloro-benzo[b]thiophen-2-ylmethoxy)-ethyl]-phenyl}-C,C,C-trifluoro-methanesulfonamide] |
| 90 to 92 °C | O=S(=O)(Nc1cccc(CCOCc2ccc(C3CCCCC3)cc2)c1)C(F)(F)F [Example 68, N-{3-[2-(4-cyclohexyl-benzyloxy)-ethyl]-phenyl}-C,C,C-trifluoro-methane sulfonamide] |
| 40 to 42 °C | CC(C)(C)c1ccc(COCCc2cccc(NS(=O)(=O)C(F)(F)F)c2)cc1 [Example 69, N-{3-[2-(4-tert-Butyl-benzyloxy)-ethyl]-phenyl}-C,C,C-trifluoro-methane sulfonamide] |
| 48 to 50 °C | O=S(=O)(Nc1cccc(CCOCc2ccc(Br)cc2F)c1)C(F)(F)F [Example 72, N-{3-[2-(4-Bromo-2-fluoro-benzyloxy)-ethyl]-phenyl}-C,C,C-trifluoro-methanesulfonamide] |
| 62 to 63 °C | O=S(=O)(Nc1cccc(CCOCc2cccc(OCc3ccccc3)c2)c1)C(F)(F)F [Example 73, N-{3-[2-(3-benzyloxy-benzyloxy)-ethyl]-phenyl}-C,C,C-trifluoro-methanesulfonamide] |
| 48 to 50 °C | O=S(=O)(Nc1cccc(CCOCc2ccc(I)cc2)c1)C(F)(F)F [Example 74, N-{3-[2-(4-Iodo-benzyloxy)-ethyl]-phenyl}-C,C,C-trifluoro-methanesulfonamide] |
| 47 to 49 °C | O=S(=O)(Nc1cccc(CCOCc2ccc(Oc3ccccc3)cc2)c1)C(F)(F)F [Example 76, N-{3-[2-(4-Phenoxy-benzyloxy)-ethyl]-phenyl}-C,C,C-trifluoro-methane sulfonamide] |
| 75 to 77 °C | CC(C)(C)c1ccc(-c2nc(COCCc3cccc(NS(=O)(=O)C(F)(F)F)c3)no2)cc1 [Example 81, N-{3-[2-(5-(4-tert-Butyl-phenyl)-[1,2,4]oxadiazol-3-ylmethoxy)-ethyl]-phenyl}-C,C,C-trifluoro-methanesulfonamide] |
| 83 to 86 °C | O=S(=O)(NCCc1cccc(OCc2noc(-c3ccc(C(F)(F)F)cc3)n2)c1)C(F)(F)F [Example 82, N-{2-[3-(5-(4-Trifluoromethyl-phenyl) [1,2,4]oxadiazol-3-ylmethoxy)-phenyl]-ethyl}-C,C,C-trifluoro-methanesulfonamide] |
| 62 to 64 °C | O=S(=O)(Nc1cccc(CCOCc2noc(-c3cccc(C(F)(F)F)c3)n2)c1)C(F)(F)F [Example 83, N-{3-[2-(5-(3-trifluoromethyl-phenyl)-[1,2,4]oxadiazol-3-ylmethoxy)-ethyl]-phenyl}-C,C,C-trifluoro-methanesulfonamide] |
| 52 to 54 °C | COc1cccc(-c2nc(COCCc3cccc(NS(=O)(=O)C(F)(F)F)c3)no2)c1 [Example 84, N-{3-[2-(5-(3-methoxy-phenyl)-[1,2,4]oxadiazol-3-ylmethoxy)-ethyl]-phenyl}-C,C,C-trifluoro-methanesulfonamide] |
| 88 to 90 °C | COc1ccc(-c2nc(COCCc3cccc(NS(=O)(=O)C(F)(F)F)c3)no2)cc1 [Example 85, N-{3-[2-(5-(4-methoxy-phenyl)-[1,2,4]oxadiazol-3-ylmethoxy)-ethyl]-phenyl}-C,C,C-trifluoro-methanesulfonamide] |
| 83 to 86 °C | O=S(=O)(Nc1cccc(CCOCc2noc(-c3ccc(C(F)(F)F)cc3)n2)c1)C(F)(F)F [Example 87, N-{3-[2-(5-(4-trifluoromethylphenyl)-[1,2,4]oxadiazol-3-ylmethoxy)-ethyl]-phenyl}-C,C,C-trifluoro-methanesulfonamide] |
